The subject of assay [1] is various subtypes of muscarinic receptor. The following applies: cited from earlier work.
For assay [2], the system named is monomers of the M2 receptor. The following applies: cited from earlier work.
Assay [3] concerns the target T1, human M2 receptor (Homo sapiens, UniProt P08172). In kind it is binding.
The target of assay [4] is M2 receptor extracted from porcine atria (Sus scrofa, UniProt P06199). In kind it is binding.
The target in assay [5] is T2, M2 receptor (Sus scrofa, UniProt P06199). In kind it is binding.
T2 sequence (P06199 whole entry): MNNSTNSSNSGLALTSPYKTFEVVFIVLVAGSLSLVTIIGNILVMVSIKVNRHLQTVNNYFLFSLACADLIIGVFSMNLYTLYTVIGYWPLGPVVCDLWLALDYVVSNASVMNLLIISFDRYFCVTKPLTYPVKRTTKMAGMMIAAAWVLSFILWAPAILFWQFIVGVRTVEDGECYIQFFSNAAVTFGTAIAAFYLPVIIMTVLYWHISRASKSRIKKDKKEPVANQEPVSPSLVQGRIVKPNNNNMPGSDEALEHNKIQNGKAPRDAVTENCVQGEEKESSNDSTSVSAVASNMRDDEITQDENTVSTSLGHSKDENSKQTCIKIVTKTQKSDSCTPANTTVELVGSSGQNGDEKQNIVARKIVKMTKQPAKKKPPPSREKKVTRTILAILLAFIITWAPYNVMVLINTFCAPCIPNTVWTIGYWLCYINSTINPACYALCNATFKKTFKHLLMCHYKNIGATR
Assay [6] addresses M2 receptor from porcine atria (Sus scrofa, UniProt P06199). Nature of the assay: biochemical. In kind it is binding.
The test system of assay [7] is muscarinic acetylcholine M2 receptors. The following applies: cited from earlier work.
The target in assay [8] is M2 receptor in sarcolemmal membranes (Sus scrofa, UniProt P06199). Nature of the assay: biochemical. It is filed as binding, porcine.
Sequence of M2 receptor in sarcolemmal membranes (P06199 whole entry): as above
Assay [9] concerns the target T1, human M2 receptor. It is filed as binding. This is another data set of the same source.
Assay [10] has as its target T2, M2 receptor. The following applies: cited from earlier work.

Molecules are shown by their SMILES. Where “and” joins values, the source holds several entries; their conditions need not be identical. Equal entries are not always repeated. Structures can show the parent of a compound that is named as a salt.

T1 sequence (P08172 whole entry): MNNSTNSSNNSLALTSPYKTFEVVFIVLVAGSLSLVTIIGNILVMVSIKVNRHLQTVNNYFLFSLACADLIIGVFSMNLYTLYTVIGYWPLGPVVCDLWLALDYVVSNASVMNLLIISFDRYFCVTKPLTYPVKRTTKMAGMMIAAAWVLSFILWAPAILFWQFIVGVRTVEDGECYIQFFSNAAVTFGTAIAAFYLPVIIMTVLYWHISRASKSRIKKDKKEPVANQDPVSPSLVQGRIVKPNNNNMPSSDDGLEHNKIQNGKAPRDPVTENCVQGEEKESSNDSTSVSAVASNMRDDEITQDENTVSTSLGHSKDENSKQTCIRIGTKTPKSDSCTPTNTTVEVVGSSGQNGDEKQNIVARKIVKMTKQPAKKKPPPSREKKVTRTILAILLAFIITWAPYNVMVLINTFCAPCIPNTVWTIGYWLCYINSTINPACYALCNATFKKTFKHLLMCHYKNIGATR
Sequence of M2 receptor from porcine atria (P06199 whole entry): as the sequence (P06199 whole entry) above
Sequence of M2 receptor extracted from porcine atria (P06199 whole entry): as above

In the case of `Clc1cccc(Cl)c1CO/N=C/c1cc[n+](CCC[n+]2ccc(/C=N/OCc3c(Cl)cccc3Cl)cc2)cc1` [Duo-3], in assay [1], the Hill coefficient entry is on record as “greater than 1”.
Turning to `COc1ccc2c(c1)c1c3c(c4c5ccccc5n(C)c4c1n2CC(O)CN(C)C)C(=O)NC3=O` (stereo not shown) [Go7874], the Hill coefficient entry in assay [1] was “greater than 1”.
In the case of `COC(=O)[C@@]1(OC)C[C@H]2O[C@]1(C)n1c3ccccc3c3c4c(c5c6ccccc6n2c5c31)C(=O)N(C)C4` [KT5823], the Hill coefficient result in assay [1] is given as “greater than 1”.
As for `C[N+]1(C)[C@@H]2C[C@@H](OC(=O)[C@H](CO)c3ccccc3)C[C@H]1[C@@H]1O[C@@H]12` [N-[^3H]methylscopolamine, N-[^3H]Methylscopolamine], in assay [2], the “rate constant of dissociation” value is 0.036 ± 0.001. Moreover, the results for the “observed rate constant for dissociation kobsd, range of values” (on human M2 receptor [3]; in [4]) were 0.054 to 0.059 min⁻¹ and 0.179 to 0.247 min⁻¹, respectively. Moreover, on human M2 receptor [3], the “rate constant of net dissociation k (mean)” value is listed as 0.053 ± 0.002.
Consider `CN1[C@@H]2CC[C@H]1C[C@@H](OC(=O)C(CO)c1ccccc1)C2` (stereo partly shown) [atropine, Atropine sulfate], for which the “Hill coefficient for inhibition of N-[3H]methylscopolamine” value at M2 receptor [5] was “indistinguishable from 1”.
In general, EC50 refers to the midpoint of the concentration-response curve. Read a low EC50 as an effect from little substance. For the compound `CC[N+](CC)(CC)CCOc1cccc(OCC[N+](CC)(CC)CC)c1OCC[N+](CC)(CC)CC` [gallamine, gallamine triethiodide], the concentration giving a half-maximal response (EC50) is ~71000 nM in assay [6]; 53.7 nM and 282 nM in assay [8] (log K1). The “log K” value in assay [2] is −4.12. The cooperativity factor in assay [7] is 46. In assay [8], the “cooperativity factor (1/α), Scheme 2” value is “about 70”. Moreover, the “nH(1)” value on human M2 receptor [9] is 2.41.
`Nc1c2c(nc3ccccc13)CCCC2` [tacrine]: the Hill coefficient result at M2 receptor [10] is “exceed 1”; in assay [1] it was “greater than 1”.

Values taken from publication PMC3595096 (Biochemistry, 2012).
